In patent US9409905B2, “Antibacterial compounds and methods for use” (PTC THERAPEUTICS, INC., priority 2011, dated 2016):
Converted amounts (≈) assume the structure as drawn.

Key:
[1] = test system: Escherichia coli (E. coli) BAS849; test: Antibacterial activity, microbroth dilution MIC (Table 1); assay type: cell-based; conditions: microbroth dilution, super sensitive Gram-negative E. coli BAS849, read-out: MIC, BAS849
Summary of the method: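 Microbroth dilution was used. MIC, in μg/mL, is the lowest drug concentration preventing macroscopically visible growth under the test conditions.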

[2] = test system: Staphylococcus aureus (S. aureus) 29213; test: as above; assay type: cell-based; conditions: microbroth dilution, Gram-positive S. aureus 29213, read-out: MIC, 29213
Summary of the method: (§1)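 Broth microdilution against S. aureus 29213, E. coli 25922 and hypersensitive E. coli BAS849. MIC in μg/mL is the lowest drug concentration preventing macroscopically visible growth under test conditions.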

E. coli 25922 = test: as above; assay type: cell-based, Escherichia coli; conditions: Escherichia coli; microbroth dilution; control Gram-negative E. coli 25922 strain; read-out: MIC, 25922
Summary of the method: as §1

E. coli LZ3111 = test: Antibacterial activity, MIC, quinolone resistant strain (Table 2); assay type: cell-based; conditions: Escherichia coli, LZ3111, read-out: MIC LZ3111
Summary of the method: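 MIC values (μg/mL) came from a microbroth dilution assay, scored as the lowest drug concentration at which no growth was visible by eye.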

E. coli ELZ4251 = test: Antibacterial activity, MIC, multi-drug resistant clinical isolate (Table 3); assay type: cell-based; conditions: Escherichia coli
Text: The antibacterial activity from a microbroth dilution method may be presented as the minimum inhibitory concentration (MIC in μg/mL). The MIC value is the lowest concentration of drug which prevents macroscopically visible growth under test conditions.
Antibacterial activity of test compounds against E. coli ELZ4000 and E. coli ELZ4251 multi-drug resistant clinical isolates is shown in Table 3.

[3] = test system: Acinetobacter baumannii (A. baumannii) BAA747; test: Antibacterial activity, MIC (Table 4); assay type: cell-based; conditions: A. baumannii BAA747, read-out: MIC, BAA747
Summary of the method: (§2)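 Activity was measured by microbroth dilution. The MIC, in μg/mL, is the lowest drug concentration that prevents macroscopically visible growth under the test conditions. The resistant strains are multi-drug resistant clinical isolates.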

[4] = test system: Klebsiella pneumoniae (K. pneumoniae) 35657; test: Antibacterial activity, MIC (Table 4); assay type: cell-based; conditions: K. pneumoniae 35657, read-out: MIC, 35657
Summary of the method: as §2

A. baumannii MXX2240 = test: Antibacterial activity, MIC, resistant strain (Table 4); assay type: cell-based; conditions: Acinetobacter baumannii, MXX2240; resistant A. baumannii MMX2240, multi-drug resistant clinical isolate; read-out: MIC, MMX2240
Summary of the method: as §2

K. pneumoniae MXX1232 = test: as above; assay type: cell-based; conditions: Klebsiella pneumoniae, MXX1232; resistant K. pneumoniae MMX1232, multi-drug resistant clinical isolate; read-out: MIC, MMX1232
Summary of the method: as §2

[5] = test system: Pseudomonas aeruginosa (P. aeruginosa) 27853; test: Antibacterial activity, MIC (Table 5); assay type: cell-based; conditions: P. aeruginosa 27853, read-out: MIC, 27853
Summary of the method: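 Values are MICs in μg/mL, read as the lowest concentration at which no growth is visible by eye. They were determined by a microbroth dilution method.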

SMILES | MIC [1] [µg/mL] | MIC [2] [µg/mL] | MIC (E. coli 25922) [µg/mL] | MIC (E. coli LZ3111) [µg/mL] | MIC (E. coli ELZ4251) [µg/mL] | MIC [3] [µg/mL] | MIC [4] [µg/mL] | MIC (A. baumannii MXX2240) [µg/mL] | MIC (K. pneumoniae MXX1232) [µg/mL] | MIC [5] [µg/mL]
CCCCNCc1cc2cc(-c3[nH]c(=O)c(C(=O)O)c(O)c3CC)ccc2n1C [Cpd 333, 6-(2-((butylamino)methyl)-1-methyl-1H-indol-5-yl)-5-ethyl-4-hydroxy-2-oxo-1,2-dihydropyridine-3-carboxylic acid] | < 1 | 3.5 to 12.5 (≈ 8.81 to 31.4 µM) | < 1 | 3.5 to 12.5 (≈ 8.81 to 31.4 µM) | 12.5 to 150 (≈ 31.4 to 377 µM) | < 1 | < 1 | 1 to 3.5 (≈ 2.52 to 8.81 µM) | 12.5 to 150 (≈ 31.4 to 377 µM) | 12.5 to 150 (≈ 31.4 to 377 µM)
CCCCCNCc1cc2cc(-c3[nH]c(=O)c(C(=O)O)c(O)c3CC)ccc2n1C [Cpd 334, 5-ethyl-4-hydroxy-6-(1-methyl-2-((pentylamino)methyl)-1H-indol-5-yl)-2-oxo-1,2-dihydropyridine-3-carboxylic acid] | < 1 | 12.5 to 150 (≈ 30.4 to 365 µM) | < 1 | 12.5 to 150 (≈ 30.4 to 365 µM) | 12.5 to 150 (≈ 30.4 to 365 µM) | 1 to 3.5 (≈ 2.43 to 8.51 µM) | 1 to 3.5 (≈ 2.43 to 8.51 µM) | 12.5 to 150 (≈ 30.4 to 365 µM) | 12.5 to 150 (≈ 30.4 to 365 µM) | 12.5 to 150 (≈ 30.4 to 365 µM)
CCCCCCNCc1cc2cc(-c3[nH]c(=O)c(C(=O)O)c(O)c3CC)ccc2n1C [Cpd 335, 5-ethyl-6-(2-((hexylamino)methyl)-1-methyl-1H-indol-5-yl)-4-hydroxy-2-oxo-1,2-dihydropyridine-3-carboxylic acid] | < 1 | 1 to 3.5 (≈ 2.35 to 8.23 µM) | < 1 | 1 to 3.5 (≈ 2.35 to 8.23 µM) | 12.5 to 150 (≈ 29.4 to 353 µM) | 3.5 to 12.5 (≈ 8.23 to 29.4 µM) | 1 to 3.5 (≈ 2.35 to 8.23 µM) | 12.5 to 150 (≈ 29.4 to 353 µM) | 12.5 to 150 (≈ 29.4 to 353 µM) | 12.5 to 150 (≈ 29.4 to 353 µM)
CCCCCCCNCc1cc2cc(-c3[nH]c(=O)c(C(=O)O)c(O)c3CC)ccc2n1C [Cpd 336, 5-ethyl-6-(2-((heptylamino)methyl)-1-methyl-1H-indol-5-yl)-4-hydroxy-2-oxo-1,2-dihydropyridine-3-carboxylic acid] | < 1 | < 1 | 3.5 to 12.5 (≈ 7.96 to 28.4 µM) | < 1 | 12.5 to 150 (≈ 28.4 to 341 µM) | 12.5 to 150 (≈ 28.4 to 341 µM) | 12.5 to 150 (≈ 28.4 to 341 µM) | 12.5 to 150 (≈ 28.4 to 341 µM) | 12.5 to 150 (≈ 28.4 to 341 µM) | 12.5 to 150 (≈ 28.4 to 341 µM)
CCCCCCCCNCc1cc2cc(-c3[nH]c(=O)c(C(=O)O)c(O)c3CC)ccc2n1C [Cpd 337, 5-ethyl-4-hydroxy-6-(1-methyl-2-((octylamino)methyl)-1H-indol-5-yl)-2-oxo-1,2-dihydropyridine-3-carboxylic acid] | < 1 | 1 to 3.5 (≈ 2.2 to 7.72 µM) | 12.5 to 150 (≈ 27.6 to 331 µM) | 3.5 to 12.5 (≈ 7.72 to 27.6 µM) | 12.5 to 150 (≈ 27.6 to 331 µM) | 12.5 to 150 (≈ 27.6 to 331 µM) | 12.5 to 150 (≈ 27.6 to 331 µM) | 12.5 to 150 (≈ 27.6 to 331 µM) | 12.5 to 150 (≈ 27.6 to 331 µM) | 12.5 to 150 (≈ 27.6 to 331 µM)
CCCCCCCCCNCc1cc2cc(-c3[nH]c(=O)c(C(=O)O)c(O)c3CC)ccc2n1C [Cpd 338, 5-ethyl-4-hydroxy-6-(1-methyl-2-((nonylamino)methyl)-1H-indol-5-yl)-2-oxo-1,2-dihydropyridine-3-carboxylic acid] | 1 to 3.5 (≈ 2.14 to 7.48 µM) | 3.5 to 12.5 (≈ 7.48 to 26.7 µM) | 12.5 to 150 (≈ 26.7 to 321 µM) | 12.5 to 150 (≈ 26.7 to 321 µM) | 12.5 to 150 (≈ 26.7 to 321 µM) | 12.5 to 150 (≈ 26.7 to 321 µM) | 12.5 to 150 (≈ 26.7 to 321 µM) | 12.5 to 150 (≈ 26.7 to 321 µM) | 12.5 to 150 (≈ 26.7 to 321 µM) | 12.5 to 150 (≈ 26.7 to 321 µM)
CCc1c(-c2ccc3c(c2)c(C#N)c(OC)n3C)[nH]c(=O)c(C(=O)O)c1O [Cpd 362, 6-(3-cyano-2-methoxy-1-methyl-1H-indol-5-yl)-5-ethyl-4-hydroxy-2-oxo-1,2-dihydropyridine-3-carboxylic acid] | 1 to 3.5 (≈ 2.72 to 9.53 µM) | 3.5 to 12.5 (≈ 9.53 to 34 µM) | 12.5 to 150 (≈ 34 to 408 µM) | 12.5 to 150 (≈ 34 to 408 µM) | 12.5 to 150 (≈ 34 to 408 µM) | 12.5 to 150 (≈ 34 to 408 µM) | 12.5 to 150 (≈ 34 to 408 µM) | 12.5 to 150 (≈ 34 to 408 µM) | 12.5 to 150 (≈ 34 to 408 µM) | 12.5 to 150 (≈ 34 to 408 µM)
